For assay [1], the target named is T1, Tyrosine-protein kinase ZAP-70 (Homo sapiens) (UniProt P43403).
T1 sequence (whole entry): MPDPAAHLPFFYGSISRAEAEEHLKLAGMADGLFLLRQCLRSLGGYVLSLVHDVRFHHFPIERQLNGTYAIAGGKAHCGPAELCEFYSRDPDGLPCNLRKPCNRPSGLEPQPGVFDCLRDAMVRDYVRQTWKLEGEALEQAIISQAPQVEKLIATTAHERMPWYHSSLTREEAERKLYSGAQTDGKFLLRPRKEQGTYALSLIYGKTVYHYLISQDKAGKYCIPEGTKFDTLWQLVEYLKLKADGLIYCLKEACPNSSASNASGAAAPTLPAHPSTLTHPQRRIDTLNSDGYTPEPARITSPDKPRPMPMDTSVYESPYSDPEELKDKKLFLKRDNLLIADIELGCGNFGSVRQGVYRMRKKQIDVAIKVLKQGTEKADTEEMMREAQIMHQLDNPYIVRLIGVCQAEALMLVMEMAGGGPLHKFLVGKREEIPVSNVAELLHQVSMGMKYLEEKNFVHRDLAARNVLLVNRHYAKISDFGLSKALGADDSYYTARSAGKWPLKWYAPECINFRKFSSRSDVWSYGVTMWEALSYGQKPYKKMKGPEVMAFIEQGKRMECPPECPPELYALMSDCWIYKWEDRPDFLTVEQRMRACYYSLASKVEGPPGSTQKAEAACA
Put plainly: ZAP-70(h) Eurofins kinase panel. The note with it: Compound concentration 1.0 uM.

The target in assay [2] is mTOR/FKBP12A/FKBP12B (Homo sapiens) (UniProt P62942+P68106+P42345). Put plainly: mTOR/FKBP12(h) Eurofins kinase panel. Conditions: Compound concentration 1.0 uM. In kind it is protein-complex assay.
Assay [3] deals with Focal adhesion kinase 1 (Homo sapiens) (UniProt Q05397). The experiment in a line: FAK(h) Eurofins kinase panel. The note with it: Compound concentration 1.0 uM.
Assay [4] concerns the target Fibroblast growth factor receptor 2 (Homo sapiens) (UniProt P21802). The experiment in a line: FGFR2(h) Eurofins kinase panel. The note with it: Compound concentration 1.0 uM.
In assay [5] the target is Serine/threonine-protein kinase SIK3 (Homo sapiens) (UniProt Q9Y2K2). The experiment in a line: SIK3(h) Eurofins kinase panel. The note with it: Compound concentration 1.0 uM.
Assay [6] deals with Serine/threonine-protein kinase pim-3 (Homo sapiens) (UniProt Q86V86). The experiment in a line: Pim-3(h) Eurofins kinase panel. The note with it: Compound concentration 1.0 uM.
Assay [7] deals with Mitogen-activated protein kinase 3 (Homo sapiens) (UniProt P27361). Put plainly: MAPK1(h) Eurofins kinase panel. Conditions: Compound concentration 1.0 uM.
Assay [8] has as its target Mitogen-activated protein kinase kinase kinase 10 (Homo sapiens) (UniProt Q02779). The experiment in a line: MLK2(h) Eurofins kinase panel. The note with it: Compound concentration 1.0 uM.
Assay [9] deals with Serine/threonine-protein kinase 10 (Homo sapiens) (UniProt O94804). Put plainly: LOK(h) Eurofins kinase panel. The note with it: Compound concentration 1.0 uM.
Assay [10] concerns the target T2, cGMP-dependent protein kinase 2 (Homo sapiens) (UniProt Q13237).
T2 sequence (whole entry): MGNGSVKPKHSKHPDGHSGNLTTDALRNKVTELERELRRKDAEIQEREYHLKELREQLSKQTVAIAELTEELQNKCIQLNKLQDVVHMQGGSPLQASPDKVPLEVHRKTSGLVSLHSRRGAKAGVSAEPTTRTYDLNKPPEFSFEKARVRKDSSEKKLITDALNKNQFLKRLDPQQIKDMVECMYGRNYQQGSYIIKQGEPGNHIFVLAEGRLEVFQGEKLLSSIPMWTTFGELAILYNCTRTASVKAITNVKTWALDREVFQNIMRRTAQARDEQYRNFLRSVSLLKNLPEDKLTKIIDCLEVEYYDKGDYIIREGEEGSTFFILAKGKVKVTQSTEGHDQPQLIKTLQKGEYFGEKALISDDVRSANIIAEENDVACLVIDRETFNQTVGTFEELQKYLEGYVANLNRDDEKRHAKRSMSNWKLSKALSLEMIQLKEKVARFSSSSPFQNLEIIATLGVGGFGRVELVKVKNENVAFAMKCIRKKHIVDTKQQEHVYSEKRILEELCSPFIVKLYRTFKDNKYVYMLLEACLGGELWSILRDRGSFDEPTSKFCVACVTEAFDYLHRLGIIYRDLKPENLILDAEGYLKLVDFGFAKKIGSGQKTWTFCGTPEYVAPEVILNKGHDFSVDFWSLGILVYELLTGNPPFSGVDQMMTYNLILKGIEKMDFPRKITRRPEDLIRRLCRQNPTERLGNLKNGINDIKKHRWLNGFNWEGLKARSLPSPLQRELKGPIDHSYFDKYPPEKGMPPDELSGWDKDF
Put plainly: PRKG2(h) Eurofins kinase panel. Conditions: Compound concentration 1.0 uM.

In the next assay the test system is COLO 201. Put plainly: COLO 201, control cell line Proliferation assay. In kind it is functional, Homo sapiens. Conditions: time 3 day.
In assay [11] the target is Serine/threonine-protein kinase/endoribonuclease IRE1 (Homo sapiens) (UniProt O75460). Put plainly: IRE1(h) Eurofins kinase panel. The note with it: Compound concentration 1.0 uM.
For assay [12], the target named is Homeodomain-interacting protein kinase 1 (Homo sapiens) (UniProt Q86Z02). Put plainly: HIPK1(h) Eurofins kinase panel. The note with it: Compound concentration 1.0 uM.
Assay [13] has as its target T3, Serine/threonine-protein kinase Sgk2 (Homo sapiens) (UniProt Q9HBY8).
T3 sequence (whole entry): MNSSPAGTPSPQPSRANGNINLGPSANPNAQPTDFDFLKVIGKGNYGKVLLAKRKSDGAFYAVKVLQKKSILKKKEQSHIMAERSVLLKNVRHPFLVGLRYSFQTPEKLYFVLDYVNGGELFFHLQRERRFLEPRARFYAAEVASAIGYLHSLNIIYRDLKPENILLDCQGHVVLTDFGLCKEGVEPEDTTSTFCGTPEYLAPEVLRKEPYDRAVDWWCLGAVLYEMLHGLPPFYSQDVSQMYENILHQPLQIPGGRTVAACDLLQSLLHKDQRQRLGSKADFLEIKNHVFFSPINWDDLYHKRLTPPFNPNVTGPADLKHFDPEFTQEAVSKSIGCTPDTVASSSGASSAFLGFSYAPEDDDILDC
The experiment in a line: SGK2(h) Eurofins kinase panel. Conditions: Compound concentration 1.0 uM.

Mitogen-activated protein kinase 3 (Homo sapiens), sequence (P27361 whole entry, looked up): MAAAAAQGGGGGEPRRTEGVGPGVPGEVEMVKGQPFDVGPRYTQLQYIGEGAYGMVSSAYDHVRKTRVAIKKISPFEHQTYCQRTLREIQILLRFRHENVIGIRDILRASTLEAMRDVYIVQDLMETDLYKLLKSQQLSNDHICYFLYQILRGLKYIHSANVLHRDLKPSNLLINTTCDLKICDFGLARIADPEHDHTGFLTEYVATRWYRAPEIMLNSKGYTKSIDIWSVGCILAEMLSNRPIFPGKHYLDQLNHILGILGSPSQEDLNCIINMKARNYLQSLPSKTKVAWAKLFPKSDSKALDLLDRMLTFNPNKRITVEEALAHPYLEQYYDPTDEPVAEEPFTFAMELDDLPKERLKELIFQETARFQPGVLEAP
Focal adhesion kinase 1 (Homo sapiens), sequence (Q05397 2-1052 limits assumed): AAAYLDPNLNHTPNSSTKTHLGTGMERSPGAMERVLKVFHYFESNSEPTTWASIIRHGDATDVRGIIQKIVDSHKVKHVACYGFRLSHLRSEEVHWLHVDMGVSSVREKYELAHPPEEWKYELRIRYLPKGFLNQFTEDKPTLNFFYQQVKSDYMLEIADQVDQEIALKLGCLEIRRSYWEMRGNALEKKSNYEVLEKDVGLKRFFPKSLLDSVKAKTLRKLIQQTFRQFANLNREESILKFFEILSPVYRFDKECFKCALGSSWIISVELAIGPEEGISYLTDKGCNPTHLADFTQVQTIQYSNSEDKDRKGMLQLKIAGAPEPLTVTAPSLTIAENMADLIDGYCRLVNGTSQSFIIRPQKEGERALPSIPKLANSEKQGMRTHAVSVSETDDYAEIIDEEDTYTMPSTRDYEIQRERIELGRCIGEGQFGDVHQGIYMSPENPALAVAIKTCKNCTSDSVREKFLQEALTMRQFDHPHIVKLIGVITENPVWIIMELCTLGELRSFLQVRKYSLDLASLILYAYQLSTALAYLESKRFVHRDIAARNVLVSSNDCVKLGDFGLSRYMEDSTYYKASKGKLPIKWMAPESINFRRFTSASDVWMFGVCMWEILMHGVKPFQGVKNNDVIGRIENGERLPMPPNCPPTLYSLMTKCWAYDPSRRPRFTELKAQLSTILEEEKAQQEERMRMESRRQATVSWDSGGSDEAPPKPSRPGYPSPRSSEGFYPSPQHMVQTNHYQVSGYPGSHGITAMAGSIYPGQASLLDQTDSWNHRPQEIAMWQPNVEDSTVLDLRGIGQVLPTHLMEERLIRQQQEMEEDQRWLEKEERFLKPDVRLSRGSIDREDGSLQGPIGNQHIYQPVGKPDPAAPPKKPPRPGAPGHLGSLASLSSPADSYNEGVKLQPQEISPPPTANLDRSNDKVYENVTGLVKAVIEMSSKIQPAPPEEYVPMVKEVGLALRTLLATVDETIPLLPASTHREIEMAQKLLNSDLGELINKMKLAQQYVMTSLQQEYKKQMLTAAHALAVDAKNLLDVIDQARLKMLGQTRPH
Serine/threonine-protein kinase SIK3 (Homo sapiens), sequence (Q9Y2K2 whole entry, looked up): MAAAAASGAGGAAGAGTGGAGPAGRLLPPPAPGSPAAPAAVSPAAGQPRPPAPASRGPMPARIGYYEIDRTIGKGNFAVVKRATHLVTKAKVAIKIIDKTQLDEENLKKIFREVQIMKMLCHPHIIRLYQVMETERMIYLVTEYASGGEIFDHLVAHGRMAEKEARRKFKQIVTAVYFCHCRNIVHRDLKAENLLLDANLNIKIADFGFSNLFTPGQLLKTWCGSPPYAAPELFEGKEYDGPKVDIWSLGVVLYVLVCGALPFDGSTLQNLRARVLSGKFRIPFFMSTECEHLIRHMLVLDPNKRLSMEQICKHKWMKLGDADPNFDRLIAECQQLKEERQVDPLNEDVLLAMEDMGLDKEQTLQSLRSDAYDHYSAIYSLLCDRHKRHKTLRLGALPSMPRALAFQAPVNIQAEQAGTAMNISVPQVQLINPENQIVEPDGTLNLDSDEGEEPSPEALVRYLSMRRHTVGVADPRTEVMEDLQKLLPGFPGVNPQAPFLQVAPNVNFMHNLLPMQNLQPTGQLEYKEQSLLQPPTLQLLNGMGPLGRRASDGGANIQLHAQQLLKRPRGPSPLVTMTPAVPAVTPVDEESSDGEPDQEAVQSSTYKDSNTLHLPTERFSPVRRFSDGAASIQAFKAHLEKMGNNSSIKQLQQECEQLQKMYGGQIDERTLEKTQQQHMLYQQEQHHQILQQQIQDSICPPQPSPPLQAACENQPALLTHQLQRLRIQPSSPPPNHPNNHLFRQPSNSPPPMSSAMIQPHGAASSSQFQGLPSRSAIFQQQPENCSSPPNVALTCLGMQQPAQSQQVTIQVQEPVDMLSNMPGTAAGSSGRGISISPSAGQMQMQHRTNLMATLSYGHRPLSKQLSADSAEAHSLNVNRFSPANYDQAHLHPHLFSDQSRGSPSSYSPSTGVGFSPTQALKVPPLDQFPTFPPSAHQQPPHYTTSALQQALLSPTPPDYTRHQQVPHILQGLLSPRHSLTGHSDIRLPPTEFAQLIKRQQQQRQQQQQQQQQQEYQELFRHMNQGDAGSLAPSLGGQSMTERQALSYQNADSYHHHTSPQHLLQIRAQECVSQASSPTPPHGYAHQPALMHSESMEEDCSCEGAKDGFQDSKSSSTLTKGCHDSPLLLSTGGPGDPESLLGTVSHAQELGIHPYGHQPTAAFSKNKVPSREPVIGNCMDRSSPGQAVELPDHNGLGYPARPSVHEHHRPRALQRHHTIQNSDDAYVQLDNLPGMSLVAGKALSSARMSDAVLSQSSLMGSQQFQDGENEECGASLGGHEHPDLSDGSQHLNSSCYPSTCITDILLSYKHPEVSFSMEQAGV
mTOR/FKBP12A/FKBP12B (Homo sapiens), sequence (P62942 2-108 limits assumed, other chains not shown): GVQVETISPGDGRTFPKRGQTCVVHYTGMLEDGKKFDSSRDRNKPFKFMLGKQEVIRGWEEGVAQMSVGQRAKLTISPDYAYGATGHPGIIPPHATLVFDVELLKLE
mTOR/FKBP12A/FKBP12B (Homo sapiens), sequence (P68106 whole entry partner, other chains not shown): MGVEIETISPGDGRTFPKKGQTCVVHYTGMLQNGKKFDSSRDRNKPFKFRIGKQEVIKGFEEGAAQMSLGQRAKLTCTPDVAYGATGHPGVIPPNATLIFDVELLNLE
Mitogen-activated protein kinase kinase kinase 10 (Homo sapiens), sequence (Q02779 whole entry, looked up): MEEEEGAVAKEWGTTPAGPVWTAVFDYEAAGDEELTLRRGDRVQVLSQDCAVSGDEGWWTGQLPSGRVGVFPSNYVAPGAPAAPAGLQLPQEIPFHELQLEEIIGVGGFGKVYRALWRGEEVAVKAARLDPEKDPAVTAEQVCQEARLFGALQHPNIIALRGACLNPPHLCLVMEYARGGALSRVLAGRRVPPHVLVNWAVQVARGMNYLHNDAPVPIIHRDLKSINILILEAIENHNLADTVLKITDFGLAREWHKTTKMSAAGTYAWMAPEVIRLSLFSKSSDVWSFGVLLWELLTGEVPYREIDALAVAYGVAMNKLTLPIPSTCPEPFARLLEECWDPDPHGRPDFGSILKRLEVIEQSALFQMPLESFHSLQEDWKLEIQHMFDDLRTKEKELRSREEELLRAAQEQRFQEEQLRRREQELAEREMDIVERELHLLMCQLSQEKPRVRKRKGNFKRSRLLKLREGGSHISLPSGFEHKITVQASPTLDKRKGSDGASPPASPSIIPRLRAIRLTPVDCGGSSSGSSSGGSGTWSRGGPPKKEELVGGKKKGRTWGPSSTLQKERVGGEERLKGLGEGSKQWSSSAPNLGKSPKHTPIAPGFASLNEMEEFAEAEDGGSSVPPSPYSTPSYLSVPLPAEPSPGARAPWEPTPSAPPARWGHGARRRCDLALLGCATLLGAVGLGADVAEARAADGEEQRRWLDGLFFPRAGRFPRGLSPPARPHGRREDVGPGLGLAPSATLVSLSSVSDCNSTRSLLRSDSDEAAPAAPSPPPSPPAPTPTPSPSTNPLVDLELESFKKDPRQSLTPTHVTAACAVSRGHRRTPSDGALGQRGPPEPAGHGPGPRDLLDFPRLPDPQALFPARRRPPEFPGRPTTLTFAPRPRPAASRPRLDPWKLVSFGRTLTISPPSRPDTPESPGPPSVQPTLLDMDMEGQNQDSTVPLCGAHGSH
Serine/threonine-protein kinase 10 (Homo sapiens), sequence (O94804 whole entry, looked up): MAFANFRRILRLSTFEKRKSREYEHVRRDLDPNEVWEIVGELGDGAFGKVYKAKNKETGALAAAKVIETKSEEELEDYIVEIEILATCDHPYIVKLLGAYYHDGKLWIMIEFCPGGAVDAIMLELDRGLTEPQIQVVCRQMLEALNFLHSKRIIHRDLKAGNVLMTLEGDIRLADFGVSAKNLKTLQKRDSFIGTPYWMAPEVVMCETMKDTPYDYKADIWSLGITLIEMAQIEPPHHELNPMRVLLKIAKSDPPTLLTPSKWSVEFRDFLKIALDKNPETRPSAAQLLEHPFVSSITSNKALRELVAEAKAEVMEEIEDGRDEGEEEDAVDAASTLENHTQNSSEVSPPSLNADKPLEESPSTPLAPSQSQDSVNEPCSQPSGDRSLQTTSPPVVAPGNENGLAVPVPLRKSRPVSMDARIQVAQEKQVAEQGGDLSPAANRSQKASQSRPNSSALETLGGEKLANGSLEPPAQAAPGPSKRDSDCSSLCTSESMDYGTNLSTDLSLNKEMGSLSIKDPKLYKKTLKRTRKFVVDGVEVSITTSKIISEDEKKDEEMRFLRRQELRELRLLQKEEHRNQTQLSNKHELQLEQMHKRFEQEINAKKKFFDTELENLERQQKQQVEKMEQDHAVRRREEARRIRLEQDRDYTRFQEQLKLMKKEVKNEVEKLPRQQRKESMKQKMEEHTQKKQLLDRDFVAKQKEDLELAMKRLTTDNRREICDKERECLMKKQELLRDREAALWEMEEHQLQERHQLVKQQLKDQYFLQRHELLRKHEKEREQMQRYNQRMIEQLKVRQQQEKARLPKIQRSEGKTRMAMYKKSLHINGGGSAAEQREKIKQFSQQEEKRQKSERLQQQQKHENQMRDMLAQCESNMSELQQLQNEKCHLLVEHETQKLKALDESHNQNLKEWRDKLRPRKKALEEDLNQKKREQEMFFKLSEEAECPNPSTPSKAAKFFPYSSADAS

As to `CCc1ccccc1C(=O)Nc1n[nH]c2c(C)c(F)c(C3C(C#N)=C(C)N(C)C(C)=C3C#N)cc12` [BAY-3827], the % residual kinase activity is 119% in assay [1]; 98% in assay [2]; 84% in [3]; 58% in [4]; 84% in [5]; 108% in assay [6]. Moreover, the % residual kinase activity in assay [7] is 95%; in assay [8] it was 94%; in assay [9] it was 88%; in assay [10] it was 79%; in assay [11], 104%; in assay [12], 100%. The % residual kinase activity in assay [13] was 70%. The “Cell Proliferation IC50” value in the assay on COLO 201 worked out at 16 µM.

The record behind these values is ChEMBL document CHEMBL4507319 (2021).
